From patent US10548829B2, “Oral care compositions and methods of use” (priority 2016, dated 2020)
Read-outs that look alike come from different tables or passages of the source.

Legend:
[1] = Growth inhibition (OD610), mixed chemostat culture; assay type: cell-based, A. viscosus, L. casei, S. oralis, F. nucleatum, V. parvula; details: Mixed species incubated in 37° C.
Procedure: (§1) Single species of Streptococcus gordonii (S. gordonii, S.g) strain V288 (ATCC #35105), Streptococcus sobrinus (S. sobrinus, S.$) strain SL1[CCM 6070, CNCTC 9/89] (ATCC #33478), or Aggregatibacter actinomycetemcomitans were analyzed. Also, a mixed culture containing Actinomyces viscosus (A. viscosus, A.v) strain (ATCC, #43146), Lactobacillus casei (L. casei, L.c) strain (ATCC #334), Streptococcus oralis (S. oralis, S. o) strain (ATCC #35037), Fusobacterium nucleatum (F. nucleatum, F. n) strain (ATCC #10953), and Veilonella parvula (V. parvula, V. p) strain (ATCC #17745) was also analyzed for growth inhibition/toxicity activity. Bacteria were cultured overnight in approximately 20 ml of BHI broth (BD, cat #237500) or maintained in a specialized complex modified BHI II medium in a continuous culture chemostat at 37° C. respectively. The following day, the OD610 were determined and solutions diluted to an OD610 of 0.2 or 0.1 respectively for the assay.
(§2) Triclosan (positive control) was prepared as a 10% stock in 100% EtOH and 3 fold serial dilutions were performed in 100% EtOH. An appropriate amount of the diluted samples was then transferred into a 96 well clear plate such that the resulting final concentration of the test samples ranged from either a 2 mM or 4 mM (highest concentration) to 0.0078 mM or 0.0156 mM (lowest concentration respectively) in 2% DMSO in 100 μl media per well. Triclosan (TCN) ranged from 0.01% to 1.67e-6% in 1% EtOH. For Zinc acetate, in order to mimic the 2:1 molar ratio (ligand:Zinc) in the Naringin:Zinc complex, the final concentration ranged from 0.7 mM to 0.0027 mM for samples with 2 mM as the highest concentration and 1.33 mM to […] for samples with 4 mM as the highest concentration in 2% DMSO. Next, 100 μl of bacterial culture at OD610 0.2 were introduced to the wells with the test samples. The wells were thoroughly mixed and incubated at 37° C. overnight. The plates were read using an Envision plate reader (PerkinElmer, Waltham, Mass.) at 610 nm.
(§3) The IC50 for the complex, Product 5, was determined for Streptococcus gordonii (S. gordonii), Streptococcus sobrinus (S. sobrinus), Aggregatibacter actinomycetemcomitans (A. actinomycetemcomitans), and also for the mixed bacterial culture. […] Triclosan (TCN) was included as a positive control for bacterial inhibition.
(§4) Antimicrobial characterization was also performed on mixed culture solutions having at least five microbial species present. A mixed culture containing Actinomyces viscosus (A. viscosus, A.v) (ATCC, #43146), Lactobacillus casei (L. casei, L.c) (ATCC #334), Streptococcus oralis (S. oralis, S.o) (ATCC #35037), Fusobacterium nucleatum (F. nucleatum, F.n) (ATCC #10953) and Veilonella parvula (V. parvula, V.p) (ATCC #17745) was maintained in a specialized complex medium (Modified BHI II Medium) in a continuous culture chemostat at 37° C. Approximately 10 ml of the culture was removed and the OD610 was determined. The assay was performed using cultures at two concentrations; 0.03 and 0.1 at OD610. […] Triclosan (positive control) was prepared as a 10% stock in 100% EtOH and 3 fold serial dilutions were performed in 100% EtOH. […] For Zinc Acetate, in order to mimic the 2:1 ratio (ligand:Zinc) composition as in the complex, the final concentration range from 0.7 mM to 0.0027 mM in 2% DMSO was used instead.
(§5) A 100 μl of bacterial culture at chosen OD610 (0.03 or 0.1) was introduced into the wells with the test samples. The wells were thoroughly mixed and plates incubated overnight in a 37° C. incubator with or without 5% CO2. After approximately 12-13 hours of treatment, the plate was read using Envision plate reader (Serial #1040984), absorbance at 610 nm. The % inhibition relative to control was determined as described for previously described antimicrobial protocols, supra.

[2] = test system: mixed culture containing Actinomyces viscosus, Lactobacillus casei, Streptococcus oralis, Fusobacterium nucleatum and Veilonella parvula; assay: Growth inhibition (OD610), mixed chemostat culture; assay type: cell-based, A. viscosus, L. casei, S. oralis, F. nucleatum, V. parvula; details: for % Inhibition: Mixed species incubated in 37° C., 0.0875 mM
Procedure: as §1, §2, §3, §4, §5

SMILES | inhibition at 250 µM ([1]; 5% CO2 (anaerobic), 0.25 mM (combination 0.1625 mM + 0.0875 mM, 0.25 mM total)) | inhibition at 250 µM ([1]; Air (aerobic), 0.25 mM (combination 0.25 mM total)) | IC50 ([2]; Mixed Species (aerobic)) | IC50 ([2]; Mixed Species (anaerobic), read-out: IC50) | % Inhibition ([2]; 5% CO2 (anaerobic)) | % Inhibition ([2]; Air (aerobic))
C[C@@H]1O[C@@H](O[C@H]2[C@H](Oc3cc(O)c4c(c3)O[C@H](c3ccc(O)cc3)CC4=O)O[C@H](CO)[C@@H](O)[C@@H]2O)[C@H](O)[C@H](O)[C@H]1O [Naringin] | 3.51 ± 1.53% | 3.1 ± 3.31% |  |  |  | 
CC(=O)[O-].CC(=O)[O-].[Zn+2] [Zinc Acetate alone, Zinc (II) Acetate] |  |  | Ambiguous | 250 µM | −1.46 ± 0.0% | 18.07 ± 2.65%
